What was measured:
[1] = system: lens epithelial cells from bovine anterior capsules; assay: Outgrowth of lens epithelial cells from bovine anterior capsules on treated slides; type: cell-based
Experimental: The tension ring is then further treated with glutaraldehyde (GA), rinsed of excess GA, and then treated with an MTX-protein conjugate. […] Control tension rings are treated with unconjugated protein (no MTX).
Outgrowth was followed for six days.

[2] = system: epithelial cells of the lens capsule; conditions: solution instilled into the anterior chamber after lens removal; cited from earlier work
rabbit LECs = conditions: mechanism unknown; cited from earlier work
[3] = treated slides, outgrowth followed for six days, first evaluation

## covalent conjugate of MTX: covalent conjugate of MTX with bovine serum albumin prepared using ECDI, attached via glutaraldehyde to the ethylenediamine plasma-treated surface
[1]; slides rinsed and evaluated again, second set of lens capsules
  outgrowth of lens epithelial cells: inhibited outgrowth
[1]; third set of cells on re-used slides
  outgrowth of lens epithelial cells: somewhat inhibited, but not completely
[1]; [3]
  outgrowth of lens epithelial cells: inhibited cell outgrowth

## CN(Cc1cnc2nc(N)nc(N)c2n1)c1ccc(C(=O)N[C@@H](CCC(=O)O)C(=O)O)cc1 [MTX (alone), methotrexate]
[1]; subsequent evaluations after the first evaluation period
  outgrowth of lens epithelial cells: not during subsequent evaluations
[1]; [3]
  outgrowth of lens epithelial cells: inhibited outgrowth
[2]
  destroying epithelial cells of the lens capsule which remain after cataract surgery: effective

## O=C(O[C@@H]1Cc2c(O)cc(O)cc2O[C@@H]1c1cc(O)c(O)c(O)c1)c1cc(O)c(O)c(O)c1 [(−)-epigallocatechin-3-gallate (EGCG), (−)-epigallocatechin-3-gallate]
Rabbit LECs
  inhibition of proliferation of rabbit LECs: inhibit the proliferation

## bovine serum albumin [protein (alone)]
[1]; [3]
  outgrowth of lens epithelial cells: allowed good outgrowth

— patent publication US20110082543A1, “Methods and Devices for Preventing or Delaying Posterior Capsule Opacification” (CLEO COSMETIC AND PHARMACEUTICAL COMPANY, LLC, priority 2009, published 2011)
